Measurements: US20070299084A1, “Indole Derivatives Useful for Treating Resistance to Antitumor Agents” (NIKEM RESE S.R.L., priority 2004, published 2007)
Where two headings read alike, the source gives them in different places. Marks after values point to notes of the source that are not given here.

Columns and labels:
[1] = system: HT29/Mit cells (mitoxantrone-resistant human colon carcinoma, BCRP overexpression); experiment: Antiproliferative activity, 72 h treatment, SRB assay, HT29/Mit
Description: HT29 and HT29/Mit (line obtained by prolonged exposure to mitoxantrone, and characterised by overerexpression of BCRP, which confers cross resistance to topotecan, irinotecan and to its metabolite SN38): maintained in McCoy 5A medium+10% FCS.
(§1) The cells (HT29 and HT29/Mit:. 40,000 cells/ml, LoVo, LoVo/Dx and HCT116: 50,000 cells/ml) are seeded in 100 μl of the respective culture media in 96-well plates. 24 hours after seeding, an aliquot (10 μl) of drug at the various concentrations is added. In the samples in which the effect of the combination of two compounds is to be tested the inhibitor is added immediately before the cytotoxic. For each dose or combination of doses/drugs the effect of the treatment is determined in 4-8 replicates.
(§2) After 72 hours of treatment the antiproliferative effect is evaluated using the sulforhodamine B (SRB) assay: the cells are fixed by adding 25 μl of 50% TCA to each well and left for 1 hour at 4° C. After washing them with water and allowing them to dry, 100 μl of 0.4% SRB in 1% acetic acid are added and left for 30 minutes at room temperature. After 4 washes in 1% acetic acid, they are left to dry, then the dye fixed by the proteins is dissolved under basic conditions with 100 μl 10 mM cold Tris and the solution is read using a spectrophotometer at 550 nm.
(§3) Percentage cell growth is calculated as the optical density of treated samples compared to the optical density of controls (untreated cells).
(§4) The Combination Index (C.I.) was determined according to Kern's method, 1988 (who continued from Drewinko B, 1976) (Kern D. H., Cancer Res. 48, 117-121, 1988; Drewinko B., Cancer Biochem. Biophys. 1, 187-195, 1976) by means of the following formula: […], where SFa and SFb are the fractions of cells surviving to treatment with compound a and b, respectively; SFab is the fraction surviving to the combination of compounds a and b.

[2] = system: HT29 cells (human colon carcinoma); experiment: Antiproliferative activity, 72 h treatment, SRB assay, HT29; format: cell-based; settings: 72 h. treatment, read-out: Antiproliferative activity (IC50 ± S.D., μM) HT-29
[3] = system: HepG2 cells (human hepatic carcinoma); experiment: Antiproliferative activity, 48 h treatment, ATPlite luminescence assay, HepG2; format: cell-based
Description: HepG2: maintained in EMEM medium+10% FCS.
(§5) 24 hours after seeding, an aliquot (10 μl) of the drug at the various concentrations is added (for each concentration there are 3 replicates). After 48 hours of treatment the antiproliferative effect is evaluated with a luminescence assay (Perkin Elmer Life Sciences ATPlite):
(§6) 50 μl of a lysis solution are added to each well followed by an equal volume of a solution containing luciferase and D-luciferin. The ATP present in all the metabolically active cells brings about the transformation reaction of D-luciferin, catalysed by luciferase, to produce a luminescent signal as described in the following scheme: ATP+D-luciferin+O2→Oxyluciferin+AMP+PPi+CO2+Light
(§7) The luminescence produced (expressed in counts per second, CPS) is measured by means of a microplate scintillation analyzer (Perkin Elmer Life Sciences Top Count).
(§8) Percentage inhibition of luminescence in the treated cells compared to the control is calculated; concentration-response curves are then analysed using Grafit v.5.0.

[4] = system: SH-SY5Y cells (human neuroblastoma); experiment: Antiproliferative activity, 48 h treatment, ATPlite luminescence assay, SH-SY5Y; format: cell-based; settings: 48 h. treatment; read-out: Antiproliferative activity (IC50 ± S.D., μM) SHSY-5Y
Description: (§9) SH-SY5Y and SK-N-BE(2): maintained in HAM-F12 medium+10% FCS.
as §5, §6, §7, §8

[5] = system: LoVo/Dx cells (doxorubicin-resistant human colon carcinoma, P-glycoprotein overexpression); experiment: Antiproliferative activity, 72 h treatment, SRB assay, LoVo/Dx; format: cell-based; settings: 72 h. treatment; read-out: Antiproliferative activity (IC50 ± S.D., μM) LoVo/Dx
From the text: (§10) LoVo and LoVo/Dx (line obtained by prolonged exposure to doxorubicin and characterised by overerexpression of P-glycoprotein, which confers resistance to doxorubicin): maintained in HAM-F12 medium+10% FCS.

[6] = system: SK-N-BE(2) cells (human neuroblastoma); experiment: Antiproliferative activity, 48 h treatment, ATPlite luminescence assay, SK-N-BE(2); format: cell-based; settings: 48 h. treatment; read-out: Antiproliferative activity (IC50 ± S.D., μM) SK-N-BE(2)
Description: as §9, §5, §6, §7, §8

[7] = system: LoVo cells (human colon carcinoma); experiment: Antiproliferative activity, 72 h treatment, SRB assay, LoVo; format: cell-based; settings: 72 h. treatment; read-out: Antiproliferative activity (IC50 ± S.D., μM) LoVo
From the text: as §10

[8] = system: HCT116 cells (human colon carcinoma); experiment: Antiproliferative activity, 72 h treatment, SRB assay, HCT116; format: cell-based; settings: 72 h. treatment; read-out: Antiproliferative activity (IC50 ± S.D., μM) HCT116
Description: HCT116 maintained in RPMI 1640 medium+10% FCS.
as §1, §2, §3, §4

[9] = system: A2780 cells (human ovarian carcinoma); experiment: Antiproliferative activity, 48 h treatment, ATPlite luminescence assay, A2780; format: cell-based; settings: 48 h. treatment; read-out: Antiproliferative activity (IC50 ± S.D., μM) A2780
Description: as §5, §6, §7, §8

[10] = Drug tolerability in H460 tumor-bearing mice (lethal toxicity); settings: topotecan 1 mg/kg, compound of example 2 30 mg/kg p.o., 8 weeks
Description: (§11) The effects of the compounds of the invention and/or topotecan on the growth of primary tumors and spontaneous lung metastasis were tested in mice inoculated s.c. in the right flank with H460 ascitic tumor cells (2×10^6/mouse). Each control or drug-treated group included 9-11 mice. The s.c. tumor growth was followed by biweekly measurements of tumor diameters with a Vernier caliper. Drug treatment was delivered orally, for 8 weeks, from day 1. Topotecan was delivered at the dose of 1 mg/kg and compounds of the invention were delivered at the dose of 30 mg/kg; in the combination group the compounds of the invention were delivered almost 1 hour after topotecan treatment. Control mice were solvent-treated orally in parallel with drug treatments.
(§12) Drug efficacy was assessed as mean percentage tumor weight inhibition in drug-treated versus control mice expressed as tumor weight inhibition % (TWI %)=100−(mean tumor weight treated/mean tumor weight control×100), evaluated during and after drug treatment. Drug tolerability was assessed in tumor-bearing mice as either lethal toxicity, i.e., any death in treated mice occurring before any control death, or percentage body weight loss (BWL %)=100−(body weight on day x/body weight on day 1×100), where x represents a day after or during the treatment period.

[11] = system: H460 spontaneous lung metastasis; experiment: H460 xenograft, spontaneous lung metastasis (antimetastatic activity); format: in vivo, athymic Swiss nude mice; settings: topotecan 1 mg/kg, compound of example 2 30 mg/kg p.o.
Description: At day 63, tumor-bearing mice were sacrificed by cervical dislocation and their lungs were removed and weighed. Lung lobes were spliced between two glass slides and the metastatic nodules were macroscopically counted against a bright light (Corti C, J. Cancer Res. Clin. Oncol. 122, 154-60, 1996). […] Reading of metastasis was performed by two independent observers, unaware of the experimental group, with an interobserver reproducibility >95%. The metastatic nature of these areas was confirmed by histological analysis of digital images obtained by Image Analysis System software (Delta System, Rome, Italy).

[12] = system: HT29/Mit human colon carcinoma xenografts; experiment: HT29/Mit human colon carcinoma xenografts, antitumor activity; format: in vivo, athymic Swiss nude mice; settings: HT29/Mit xenograft, p.o.; topotecan 15 mg/Kg every 4 days for 3 administrations; compound of example 2 30 mg/kg; alone or combined
Description: Female athymic Swiss nude mice (8-10 weeks old) (Charles River, Calco, Italy) were used for the experiments. The animals were maintained at constant temperature and humidity, and were allowed to eat and drink freely. The experimental protocol was approved by the Ethics Committee for Animal Experimentation of the Istituto Nazionale Tumori of Milan.
The antitumour effectiveness of the compounds of the invention under discussion was tested on athymic mouse models implanted with HT29 and/or HT29/Mit tumour cells: this latter variety is highly resistant to topotecan treatment. The tumour cells were implanted in vivo via subcutaneous injection of 10^7 cells taken from in vitro cultures. Randomized groups of five mice with bilateral subcutaneous tumours were used for the experiment.
Topotecan or other known antitumour agents (dissolved in distilled water or an appropriate solvent) and the compounds of the invention (dissolved in Cremophor EL:ethanol:saline solution in the proportions 5:5:90, or in an appropriate solvent) were administered orally from the third day, alone or in combination, in agreement with a treatment scheme selected in an appropriate manner depending on the type of compound to be studied.
The weight (or volume) of the tumour in treated mice compared to controls is represented graphically on the y-axis against time (x-axis).

H460 primary tumor = experiment: H460 human non-small cell lung carcinoma xenograft, antitumor activity on the primary tumor; format: in vivo, athymic Swiss nude mice; settings: H460 s.c., p.o. for 8 weeks, topotecan 1 mg/kg, compound of example 2 30 mg/kg
Description: Female athymic Swiss nude mice (8-10 weeks old) (Charles River, Calco, Italy) were used for the experiments, as described above.
H460 cells were injected i.p. into nude mice, adapted to grow as ascitis and maintained in vivo by i.p. passages (5×10^6 cells/mouse in 0.5 ml PBS) (Pratesi G., Br. J. Cancer 63, 71-74, 1991). Briefly, cells were collected from the donor mice about 7 days after inoculum. After washing, cell number and viability were determined by trypan blue exclusion. Such procedure allowed to obtain a single cell suspension easily available for s.c or i.v. injection.
as §11, §12

[13] = biological target: Vacuolar ATPase (bafilomycin sensitive ATPase activity) (Homo sapiens, UniProt P27449+Q13488); experiment: Vacuolar ATPase inhibition in human osteoclastoma (hOc) microsomal fraction; format: biochemical; settings: 30 min, 37° C., read-out: v-ATPase Activity (IC50, μM) hOc
Description: 1.1 Determination of Vacuolar ATPase Inhibition in Human Osteoclastoma (hOc)
Osteoclast-like giant cells isolated from human osteoclastoma are homogenized using a glass-teflon homogeniser (1000 rpm) and the material is centrifuged for 20 minutes at 6000 g. The resultant pellet is resuspended and centrifuged at 100000 g for 60 minutes to sediment the microsomal fraction. The resultant pellet is resuspended in medium at pH 7.4 and stored under liquid nitrogen.
Inhibition of bafilomycin sensitive ATPase activity is assayed by measuring the release of inorganic phosphate during 30 minutes of incubation, at 37° C., of the human osteoclastoma microsomal fraction in 96-well plates. The reaction medium contains 1 mM ATP, 10 mM Hepes-Tris buffer pH 8, 50 mM KCl, 5 μM valinomycin, 5 μM nigericin, 1 mM CDTA-Tris, 100 μM ammonium molybdate, 0.2 M sucrose and the microsomal fraction ([…] protein/ml). The reaction is initiated by adding MgSO4 and terminated, after 30 minutes, by adding 4 volumes of the reagent malachite green, prepared according to Chan K., Anal. Biochem. 157, 375-380, 1986.

[14] = Homo sapiens, HT-29, 72 h, read-out: Antiproliferative activity (IC50 ± S.D., μM) HT-29/Mit
[15] = read-out: Antiproliferative activity (IC50 ± S.D., μM) HepG2
[16] = Homo sapiens, HepG2, read-out: Antiproliferative activity (IC50 ± S.D., μM) HepG2

Vacuolar ATPase (bafilomycin sensitive ATPase activity), sequence (P38606 whole entry): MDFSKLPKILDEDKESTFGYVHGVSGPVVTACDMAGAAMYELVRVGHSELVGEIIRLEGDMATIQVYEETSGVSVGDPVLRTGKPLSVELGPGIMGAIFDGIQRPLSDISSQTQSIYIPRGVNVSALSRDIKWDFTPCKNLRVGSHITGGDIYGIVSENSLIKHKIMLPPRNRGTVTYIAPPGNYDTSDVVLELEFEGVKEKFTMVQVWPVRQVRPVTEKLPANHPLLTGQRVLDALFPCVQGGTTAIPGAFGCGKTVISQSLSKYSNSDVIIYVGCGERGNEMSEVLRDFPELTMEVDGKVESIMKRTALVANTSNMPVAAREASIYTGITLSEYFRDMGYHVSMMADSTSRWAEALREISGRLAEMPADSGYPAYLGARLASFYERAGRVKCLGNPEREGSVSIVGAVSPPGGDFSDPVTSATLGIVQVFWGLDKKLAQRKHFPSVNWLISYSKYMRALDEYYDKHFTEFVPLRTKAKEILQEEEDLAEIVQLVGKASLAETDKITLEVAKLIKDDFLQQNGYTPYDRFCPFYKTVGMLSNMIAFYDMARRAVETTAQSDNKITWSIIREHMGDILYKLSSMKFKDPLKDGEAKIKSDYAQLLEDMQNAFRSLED
Vacuolar ATPase (bafilomycin sensitive ATPase activity), sequence (Q13488 whole entry): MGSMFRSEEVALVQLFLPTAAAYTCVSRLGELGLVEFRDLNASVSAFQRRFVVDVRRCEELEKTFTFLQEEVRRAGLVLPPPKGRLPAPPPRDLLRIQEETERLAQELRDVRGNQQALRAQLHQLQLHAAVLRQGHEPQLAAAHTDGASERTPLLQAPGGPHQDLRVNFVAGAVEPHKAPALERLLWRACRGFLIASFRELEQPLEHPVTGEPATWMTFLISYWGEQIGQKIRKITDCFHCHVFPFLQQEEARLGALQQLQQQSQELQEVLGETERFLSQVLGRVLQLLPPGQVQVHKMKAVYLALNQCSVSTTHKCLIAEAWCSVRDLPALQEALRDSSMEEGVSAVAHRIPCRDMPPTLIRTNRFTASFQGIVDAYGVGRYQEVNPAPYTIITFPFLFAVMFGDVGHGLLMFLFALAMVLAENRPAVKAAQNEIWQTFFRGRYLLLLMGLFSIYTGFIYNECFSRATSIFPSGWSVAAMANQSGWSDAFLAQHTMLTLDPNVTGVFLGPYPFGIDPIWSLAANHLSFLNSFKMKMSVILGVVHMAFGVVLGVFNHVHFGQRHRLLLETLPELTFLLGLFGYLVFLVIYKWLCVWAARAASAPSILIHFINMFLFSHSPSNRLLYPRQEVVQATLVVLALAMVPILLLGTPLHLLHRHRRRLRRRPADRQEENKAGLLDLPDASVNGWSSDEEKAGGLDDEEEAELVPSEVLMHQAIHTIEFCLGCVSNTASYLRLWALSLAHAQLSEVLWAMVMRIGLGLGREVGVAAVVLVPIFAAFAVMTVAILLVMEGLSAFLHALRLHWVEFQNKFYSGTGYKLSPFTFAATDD
Vacuolar ATPase (bafilomycin sensitive ATPase activity), sequence (P27449 whole entry): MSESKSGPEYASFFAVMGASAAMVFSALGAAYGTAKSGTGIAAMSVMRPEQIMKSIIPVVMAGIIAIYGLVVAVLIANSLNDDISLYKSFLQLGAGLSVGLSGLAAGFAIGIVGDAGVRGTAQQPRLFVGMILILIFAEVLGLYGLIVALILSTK

CCOc1cc(C(=O)NC2CCNCC2)ccc1-c1cc2cc(Cl)c(Cl)cc2[nH]1 [Example 4]
IC50 [1, 14]: 3.6 µM | IC50 ([2]; Homo sapiens, HT-29): 4.7 µM

N.N.[Cl][Pt][Cl] [Cisplatin, reference compound]
IC50 [3, 15]: > 25 µM | IC50 [4]: 7.3 ± 3.3 µM | IC50 [5]: 0.8 µM | IC50 [6]: 10.1 ± 3.5 µM | IC50 [7]: 0.7 µM | IC50 [2]: 6.8 µM | IC50 [8]: 5.4 µM | IC50 [9]: 8.1 ± 2.1 µM

CCOc1cc(C(=O)NC2CCN(C)CC2)ccc1-c1cc2cc(Cl)c(Cl)cc2[nH]1 [Example 5]
IC50 [1, 14]: 2.3 µM | IC50 ([2]; Homo sapiens, HT-29): 3.8 µM

CO/C(=C\C=C\c1cc2cc(Cl)c(Cl)cc2[nH]1)C(=O)NC1CC(C)(C)N(C)C(C)(C)C1 [Example 1]
IC50 [3, 16]: 1.1 ± 0.1 µM | IC50 [1, 14]: 1 µM | IC50 ([2]; Homo sapiens, HT-29): 3.3 ± 0.4 µM

COc1cc(C(=O)N(C)C2CC(C)(C)NC(C)(C)C2)ccc1-c1cc2cc(Cl)c(Cl)cc2[nH]1 [Example 6]
IC50 [3, 16]: 0.92 ± 0.01 µM | IC50 [1, 14]: 3.3 µM | IC50 ([2]; Homo sapiens, HT-29): 4.7 µM

CCOc1cc(C(=O)NC2CC(C)(C)NC(C)(C)C2)ccc1-c1nc2cc(Cl)c(Cl)cc2[nH]1 [Example 3]
IC50 [3, 16]: 0.71 ± 0.01 µM | IC50 [1, 14]: 0.27 µM | IC50 ([2]; Homo sapiens, HT-29): 0.56 ± 0.26 µM

CC[C@@]1(O)C(=O)OCc2c1cc1n(c2=O)Cc2cc3c(CN(C)C)c(O)ccc3nc2-1 [Topotecan, reference compound]
IC50 ([1]; Homo sapiens, HT-29, 72 h, read-out: IC50 for topotecan alone (FIG. 1 co-treatment experiment)): > 20 µM | Tox/Tot (any death in treated mice occurring before any control mice) [10]: 0/10 | IC50 ([2]; Homo sapiens, HT-29): 0.07 ± 0.01 µM | Lung No. Metastasis (range) ([11]; day 63): 11 (4-23) | Lung Weight (mg) (mean ± S.D.) ([11]; day 63): 169 ± 16 mg | Lung No. Metastasis (range) ([11]; day 63, listed as topotecan): reduced | Lung metastasis Inhibition % ([11]; inhibition of number of metastasis vs controls): 58% | Inhibition of tumour growth [12]: 30-40% | LCK (Log10 Cell Kill) (H460 primary tumor): 0.5 | Max TWI (day 56) (Maximal Tumor weight inhibition achieved) (H460 primary tumor): 57* % | Max TWI (day 56) (Maximal Tumor weight inhibition achieved) (H460 primary tumor; listed as topotecan): 57%

CO/C1=C\C(C)=C\[C@@H](C)[C@@H](O)[C@@H](C)C/C(C)=C/C=C/[C@H](OC)[C@@H]([C@@H](C)[C@@H](O)[C@H](C)[C@@]2(O)C[C@@H](O)[C@H](C)[C@@H](C(C)C)O2)OC1=O [Bafilomycin A1, reference compound]
IC50 [3, 15]: < 0.006 µM | IC50 ([1]; read-out: Antiproliferative activity (IC50 ± S.D., μM) HT-29/Mit, 72 h. treatment): 0.005 µM | IC50 [13]: 0.0001 µM | IC50 [2]: 0.003 ± 0.002 µM
